Laboratory results taken from patent publication US20100311107A1, “Ultra-High Throughput Screening of Natural Products” (priority 2004, published 2010).
Like-named read-outs stand apart in the source and are kept apart here.

What was measured:
Assay type in all cases: cell-based, Escherichia coli
[1] = tested on: E. coli screening strain CM242; parameters: unit not given here; details: second Table 12, MHB medium
Description: (§1) The level of drug resistance of these screening strains (both intermediates and finals) was evaluated by standard MIC assay in MHB liquid medium and the result of Strain CM242 is summarized in Table 12.

[2] = tested on: E. coli screening strain CM400; parameters: unit not given here; details: Table 13, MHB medium
Description: (§2) The level of drug resistance of screening strains CM400 and CM435 was evaluated by standard MIC assay in MHB liquid medium and the results are summarized in Table 13. According to the MIC results, CM435 is hypersensitive to Bleomycin, Daunorucibin, Coumermycin A1 and Erythromycin. Screening strain CM435 and others, which are hypersensitive to certain types of antimicrobial agents, are advantageous in detecting bioactive compounds with low concentration in the screening system.

[3] = tested on: E. coli screening strain CM435; parameters: Minimal inhibitory concentrations (MIC90) CM435: unit not given here; details: for Minimal inhibitory concentrations (MIC90) CM435: Table 13, MHB medium; for sensitivity of CM435 according to the MIC results: MHB liquid medium
[4] = tested on: E. coli screening strain DR1212; parameters: unit not given here
Description: (§3) The level of drug-resistance of screening strain DR1212 was analyzed by standard MIC assay in MHB liquid medium and the result was summarized in Table 11. Similar to screening strains, DR1234 and CM166, DR1212 is also resistant to drugs whose resistant genes have been introduced.

[5] = tested on: E. coli screening strain DR1234; parameters: unit not given here
Description: (§4) The screening strain, DR1234, was established after all desired drug-resistant genes listed in Table 5 had been delivered into the parent E. coli strain, MG1655, by methods described above. Its level of drug resistance was analyzed by the standard minimum inhibitory concentration (MIC) assay in MHB liquid medium (Chantot, et al., 1986, “Antibacterial activity of roxithromycin: a laboratory evaluation,” J. Antibiot, 39(5):660-8) and the result was summarized in Table 7.

[6] = tested on: E. coli screening strain CM166; parameters: unit not given here; details: Table 9, MHB medium
Description: (§5) The level of drug resistance of CM166 was estimated by MIC assay carried out in MHB liquid medium and the results were summarized in Table 9. CM166 is resistant to antibacterial agents whose resistant genes have been incorporated into the strain, but not to other antibacterial drugs whose resistant genes are not incorporated.

[7] = tested on: BW25113 strain containing drug-resistant genes inserted into the bioA locus; experiment: drug resistance characterization of strain with Tn7 cassette in bioA locus; details: for resistance conferred: native sat promoter, streptothricin at 5 ug/ml, spectinomycin at 100 ug/ml; for resistance of strains having the promoter substitute: sat promoter replaced by Ptrc
Description: Therefore, a functional copy was introduced by homologous recombination as described hereafter. The drug-resistant gene of interest was synthesized in vitro using PCR with oligonucleotide primers that contained homologous sequences to the target genes and an additional ˜50 by homologous to a particular chromosomal site of the recipient strain. For instance, to insert the Tn7-associated resistance gene cassette dhfrI-sat-aadA into the bioA gene locus of the recipient strain, the primers listed in Table 6 were used. The capitalized portions of these primers hybridized to Tn7 template DNA upstream and downstream of the resistance gene cassette and allowed PCR amplification of the target fragment (Roche (Mannheim, Germany) Long Template PCR System). The ˜50 by additional sequence of these oligonucleotides (low case) afforded regions of homology with the chromosomal target site of the recipient, in this instance, the bioA gene locus (Table 6). The PCR product of the above reaction was introduced into a specialized strain, BW25113 (obtained from the E. coli Genetic Stock Center, strain # 7739) by standard electroporation following the manufacturer's instruction of BioRad (Hercules, Calif.) Gene Pulser, model #1652076, for standard electroporation of E. coli. Double-crossover homologous recombination, mediated by the bacteriophage lambda Red recombinase present in the strains pKD46 [#7630], pKD78 [#7989] or pKD119 [#7990], occurred between the “bioA” locus of the recipient strain and the PCR products via their homologous regions designed in the PCR primers as described above, resulting in the insertion of the drug resistance cassette into the bioA locus of the chromosome (FIG. 3, item 315). […] Once verified by drug resistance characterization and diagnostic PCR assay (see above), the drug resistance-encoding locus from the BW25113/pKD46 strain was introduced into the same locus of the recipient screening strain by standard P1 transduction as described above, also see FIG. 3, item 310.
To increase the gene expression level, the T7 promoter was used to replace the weak promoter of sat gene.

[8] = tested on: E. coli MG1655; parameters: unit not given here
Description: as §4, §5, §3, §1, §2

[9] = tested on: lacZ reporter gene of the screening strains (CM191, CM242); experiment: S-Gal staining assay on solid medium; details: screening strains on solid medium, drug-impregnated disks, PETG to suppress background
Description: The screening strains' responses to DNA damaging agents were further confirmed by S-Gal staining assay. When mitomycin C and streptonigrin (both were well-known DNA damaging drugs) and S-Gal, the indicator, were applied to the screening strains growing on solid medium, blue-colored rings were visible around colonies in drug-impregnated disks. […] Actinomycin D was an exception. CM242 was not sensitive to this drug, although it disrupts DNA structure. PETG (2-phenyethyl B-D-thiogalactoside, Sigma, St Louis Mo.), was used in this experiment to suppress unspecific background activity.

Molecule | Minimal inhibitory concentrations (MIC90) CM242 [1] | Minimal inhibitory concentrations (MIC90) CM400 [2] | Minimal inhibitory concentrations (MIC90) CM435 [3] | Minimal inhibitory concentrations (MIC90) DR1212 ([4]; Table 11, MHB medium) | Minimal inhibitory concentrations (MIC90) DR1234 ([5]; Table 7, MHB medium) | Minimal inhibitory concentrations (MIC90) CM166 [6] | resistance conferred [7] | resistance of strains having the promoter substitute [7] | Minimal inhibitory concentrations (MIC90) MG1655 ([8]; Table 7, MHB medium) | Minimal inhibitory concentrations (MIC90) MG1655 ([8]; Table 9, MHB medium) | Minimal inhibitory concentrations (MIC90) MG1655 ([8]; Table 11, MHB medium) | Minimal inhibitory concentrations (MIC90) MG1655 ([8]; Table 13, MHB medium) | Minimal inhibitory concentrations (MIC90) MG1655 ([8]; second Table 12, MHB medium) | lacZ reporter gene expression (S-Gal, blue-colored rings) [9] | sensitivity of CM435 according to the MIC results [3] | Minimal inhibitory concentrations (MIC90) DR1212 [4] | Minimal inhibitory concentrations (MIC90) DR1234 [5]
CN[C@@H]1[C@H](O)[C@H](NC)[C@H]2O[C@@]3(O)C(=O)C[C@@H](C)O[C@H]3O[C@@H]2[C@H]1O [Spectinomycin] | >400 | >64 | >64 | >400 | >400 | >400 | not | resistant | 6.3-12.5 | 6.3-12.5 | 6.3-12.5 | 16 | 6.3-12.5 | – | – | – | –
CCn1cc(C(=O)O)c(=O)c2ccc(C)nc21 [Nalidixic Acid] | >400 | >64 | >64 | 50 | 400 | 800 | – | – | 6.3 | 6.3 | 6.3 | 8 | 6.3 | not expressed | – | – | –
CCN[C@@H]1C[C@H](N)[C@@H](O[C@H]2OC(CN)=CC[C@H]2N)[C@H](O)[C@H]1O[C@H]1OC[C@](C)(O)[C@H](NC)[C@H]1O [Netilmycin] | 200 | >64 | 64 | 400 | 200 | 400 | – | – | 1.6 | 1.6 | 1.6 | 0.5 | 1.6 | – | – | – | –
CC[C@H]1OC(=O)[C@H](C)[C@@H](O[C@H]2C[C@@](C)(OC)[C@@H](O)[C@H](C)O2)[C@H](C)[C@@H](O[C@@H]2O[C@H](C)C[C@H](N(C)C)[C@H]2O)[C@](C)(O)C[C@@H](C)C(=O)[C@H](C)[C@@H](O)[C@]1(C)O [Erythromycin] | 25 | 64 | 4 | 50 | 100 | 100 | – | – | 25 | 25 | 25 | >64 | 25 | – | hypersensitive | – | –
Bleomycin | 200 | >64 | 8 | ≦0.4 | 0.8 | 400 | – | – | ≦0.2-0.4 | ≦0.2-0.4 | ≦0.2-0.4 | 2 | ≦0.2-0.4 | – | hypersensitive | – | –
Streptothricin | >400 | >64 | 64 | 200 | 400 | 400 | not | resistant | 0.4-1.6 | 0.4-1.6 | 0.4-1.6 | 2 | 0.4-1.6 | – | – | – | –
[H]/N=C(/N)N[C@H]1[C@H](O)[C@@H](O)[C@H](O[C@@H]2O[C@@H](C)[C@](O)(C=O)[C@H]2O[C@@H]2O[C@@H](CO)[C@H](O)[C@@H](O)[C@@H]2NC)[C@@H](N/C(N)=N\[H])[C@@H]1O [Streptomycin] | >400 | >64 | >64 | >400 | >400 | >400 | – | – | 3.2 | 3.2 | 3.2 | 4 | 3.2 | – | – | – | –
CN(C)[C@@H]1C(O)=C(C(N)=O)C(=O)[C@@]2(O)C(O)=C3C(=O)c4c(O)cccc4[C@@](C)(O)[C@H]3C[C@@H]12 [Tetracycline] | >400 | >64 | 64 | – | – | 100 | – | – | 0.4-3.2 | 0.4-3.2 | 0.4-3.2 | 2 | 0.4-3.2 | – | – | 100 | 100
